How the values were obtained:
[1] = tested on: AD constricted rabbit aorta; assay: Relaxing effects on vascular smooth muscle constricted by adrenaline hydrochloride (AD) in vitro; details: relaxation of rabbit aorta constricted by adrenaline (10^−5 mol/L), mean±SEM, n=5; for EC50: Oryctolagus cuniculus
Outline: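 Rabbit aortic strips in K-H solution precontracted with adrenaline hydrochloride (10^−5 mol/L) after a reproducible second contraction; compounds added cumulatively over ranges from 1×10^−10 up to 1×10^−2 mol/L depending on the compound series. Relaxation expressed as % of maximal relaxation versus −log concentration, mean±SEM, n=5.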

[2] = tested on: NA constricted rabbit aorta; assay: Relaxing effects on vascular smooth muscle constricted by noradrenaline (NA) in vitro; details: relaxation of rabbit aorta constricted by noradrenaline (10^−5 mol/L), mean±SEM, n=5; for EC50: Oryctolagus cuniculus
Experimental: Adrenaline hydrochloride (AD) (10^−5 mol/L) was added into a bath tube to induce constriction, when maximal constriction was achieved, the sample was completely flushed, K-H solution was changed for every 20 min. Contents in the tube was balanced for 60 min, when baseline recovered to be stable, noradrenaline bitartrate (NA) (10^−5 mol/L) was added to induce constriction. When the later maximal constriction response was basically consistent with the former one, the prepared compound solutions were subsequently added, including compound II-84 to II-123 solutions (1×10^−10-1×10^−2 mol/L), compound II-124 to II-157 solutions (1×10^−10-1×10^−3 mol/L), to record the waveforms. Relaxing percentage of the compound was used as Y axis, maximal relaxation response was 100%, negative logarithm of different concentration was used as X axis, to draw dose effect curve (expressed in mean±SEM ( ? ), n=5).

[3] = tested on: high kalium concentration constricted rabbit aorta; assay: Relaxing effects on vascular smooth muscle constricted by high kalium concentration in vitro; details: relaxation of rabbit aorta constricted by high kalium solution (K+ 60 mmol/L), mean±SEM, n=5; for EC50: Oryctolagus cuniculus
Outline: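 Rabbit aortic rings pre-challenged with adrenaline (10^−5 mol/L), washed and re-equilibrated 60 min in K-H solution, then constricted with high-K+ solution; compounds added cumulatively over 1×10^−10–1×10^−2 mol/L depending on series. Relaxation expressed as % of maximal relaxation vs −log concentration; mean±SEM, n=5.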

SMILES	EC50 [2] [µM]	EC50 [1] [µM]	EC50 [3] [µM]	−logEC50 [1]	−logEC50 [2]	−logEC50 [3]
Cc1ccc2c(C3CCN(CCCn4nnc5ccccc54)CC3)noc2c1 [II-86, N-(3-(1H-benzotriazole-1-yl)propyl)-4-(3-(6-methylbenzisoxazolyl))piperidine]	–	–	–	5.45 ± 0.04	5.26 ± 0.04	4.09 ± 0.04
Clc1cccc(C2CCN(CCCCn3nnc4ccccc43)CC2)c1 [II-108, N-(4-(1H-benzotriazole-1-yl)butyl)-4-(3-chlorophenyl)piperidine]	5.37	–	–	5.16 ± 0.03	–	3.82 ± 0.03
COc1ccccc1C1CCN(CCCCn2cnc3ccccc32)CC1 [II-112, N-(4-(1H-benzimidazoyl-1-yl)butyl)-4-(2-methoxylphenyl)piperidine]	28.2	–	–	4.76 ± 0.03	–	3.38 ± 0.03
COc1ccc2nnn(CCCCN3CCC(c4cccc(C(F)(F)F)c4)CC3)c2c1 [II-114, N-(4-(6-methoxyl-1H-benzotriazole-1-yl)butyl)-4-(3-trifluoromethylphenyl)piperidine]	17	–	–	4.86 ± 0.03	–	3.56 ± 0.03
Fc1cccc(C2CCN(CCCCn3cnc4ccccc43)CC2)c1 [II-111, N-(4-(1H-benzimidazoyl-1-yl)butyl)-4-(3-fluorophenyl)piperidine]	21.4	–	–	4.89 ± 0.02	–	3.44 ± 0.02
Fc1ccc2c(C3CCN(CCCn4ncc5ccccc54)CC3)noc2c1 [II-103, N-(3-(1-benzopyrazol)propyl)-4-(3-(6-fluorobenzisoxazolyl))piperidine]	7.76	6.17	617	–	–	–
COc1ccc2c(C3CCN(CCCn4nnc5ccccc54)CC3)noc2c1 [II-87, N-(3-(1H-benzotriazole-1-yl)propyl)-4-(3-(6-methoxylbenzisoxazolyl))piperidine]	–	–	–	5.34 ± 0.03	5.04 ± 0.03	4.12 ± 0.03
c1ccc2c(c1)nnn2CCCN1CCC(c2noc3ccccc23)CC1 [II-84, N-(3-(1H-benzotriazole-1-yl)propyl)-4-(3-benzisoxazolyl)piperidine]	0.676	0.589	53.7	–	–	–
Clc1cccc(C2CCN(CCCCn3cnc4ccccc43)CC2)c1 [II-107, N-(4-(1H-benzimidazoyl-1-yl)butyl)-4-(3-chlorophenyl)piperidine]	7.76	–	–	5.03 ± 0.02	–	3.69 ± 0.02
c1coc(C2CCN(CCCCn3cnc4ccccc43)CC2)c1 [II-118, N-(4-(1H-benzimidazoyl-1-yl)butyl)-4-(2-furyl)piperidine]	58.9	–	–	4.43 ± 0.05	–	3.53 ± 0.03
Fc1ccc2nnn(CCCCN3CCC(c4cccc(C(F)(F)F)c4)CC3)c2c1 [II-113, N-(4-(6-fluoro-1H-benzotriazole-1-yl)butyl)-4-(3-trifluoromethylphenyl)piperidine]	6.17	–	–	5.31 ± 0.04	–	4.03 ± 0.04
Fc1ccc2c(C3CCN(CCCn4nnc5ccc(Cl)cc54)CC3)noc2c1 [II-89, N-(3-(6-chloro-1H-benzotriazole-1-yl)propyl)-4-(3-(6-fluorobenzisoxazolyl))piperidine]	–	–	–	5.42 ± 0.04	5.22 ± 0.04	4.12 ± 0.04
N#Cc1ccc2cnn(CCCCN3CCC(c4noc5cc(F)ccc45)CC3)c2c1 [II-104, N-(4-(6-cyanobenzopyrazol)butyl)-4-(3-(6-fluorobenzisoxazolyl))piperidine]	9.55	9.55	380	–	–	–
FC(F)(F)c1cccc(C2CCN(CCCCn3nnc4ccccc43)CC2)c1 [II-110, N-(4-(1H-benzotriazole-1-yl)butyl)-4-(3-trifluoromethylphenyl)piperidine]	0.355	–	–	6.36 ± 0.03	–	5.12 ± 0.03
Cc1ccc2nnn(CCCN3CCC(c4noc5cc(F)ccc45)CC3)c2c1 [II-90, N-(3-(6-methyl-1H-benzotriazole-1-yl)propyl)-4-(3-(6-fluorobenzisoxazolyl))piperidine]	4.47	–	–	5.38 ± 0.03	–	4.28 ± 0.03
FC(F)(F)c1cccc(C2CCN(CCCOn3cnc4ccccc43)CC2)c1 [II-117, N-(4-(1H-benzimidazole-1-yl)propoxyl)-4-(3-trifluoromethylphenyl)piperidine]	7.08	–	–	5.31 ± 0.06	–	4.17 ± 0.06
O=Cc1ccc2nnn(CCCN3CCC(c4noc5cc(F)ccc45)CC3)c2c1 [II-92, N-(3-(6-formoxyl-1H-benzotriazole-1-yl)propyl)-4-(3-(6-fluorobenzisoxazolyl))piperidine]	1.86	–	–	5.56 ± 0.04	–	4.32 ± 0.04
COc1ccc2nnn(CCCN3CCC(c4noc5cc(F)ccc45)CC3)c2c1 [II-91, N-(3-(6-methoxyl-1H-benzotriazole-1-yl)propyl)-4-(3-(6-fluorobenzisoxazolyl))piperidine]	4.9	–	–	5.23 ± 0.05	–	4.02 ± 0.05
COc1ccc2nnn(CCCN3CCC(c4noc5ccccc45)CC3)c2c1 [II-93, N-(3-(6-methoxylbenzotriazolyl)propyl)-4-(3-benzisoxazolyl)piperidine]	0.851	–	–	6.11 ± 0.07	–	4.11 ± 0.03
FC(F)(F)c1cccc(C2CCN(CCCOn3nnc4ccccc43)CC2)c1 [II-116, N-(4-(1H-benzotriazole-1-yl)propoxyl)-4-(3-trifluoromethylphenyl)piperidine]	4.37	–	–	5.56 ± 0.05	–	4.22 ± 0.05
COc1ccc2nnn(OCCN3CCC(c4noc5cc(F)ccc45)CC3)c2c1 [II-98, N-(2-(6-methoxylbenzotriazolyl)ethoxyl)-4-(3-(6-fluorobenzisoxazolyl))piperidine]	49	93.3	295	–	–	–
N#Cc1ccc2nnn(CCCCN3CCC(c4cccc(C(F)(F)F)c4)CC3)c2c1 [II-115, N-(4-(6-cyano-1H-benzotriazole-1-yl)butyl)-4-(3-trifluoromethylphenyl)piperidine]	29.5	–	–	4.79 ± 0.02	–	3.23 ± 0.02

More lines, main results first:

EC50 [2] [µM]	EC50 [1] [µM]	EC50 [3] [µM]	SMILES	−logEC50 [1]	−logEC50 [2]	−logEC50 [3]
29.5	14.8	–	c1ccc2nc(C3CCN(CCCCn4nnc5ccccc54)CC3)cnc2c1 [II-123, N-(4-(1H-benzotriazole-1-yl)butyl)-4-(2-quinoxalinyl)piperidine]	–	–	3.13 ± 0.04
21.9	–	–	c1ccc2c(c1)ncn2CCCCN1CCC(c2ccncc2)CC1 [II-119, N-(4-(1H-benzimidazoyl-1-yl)butyl)-4-(4-pyridyl)piperidine]	4.86 ± 0.04	–	3.26 ± 0.04
36.3	40.7	–	c1ccc2c(c1)nnn2CCCCN1CCC(C2CCCCC2)CC1 [II-121, N-(4-(1H-benzotriazole-1-yl)butyl)-4-(4-cyclohexyl)piperidine]	–	–	3.14 ± 0.05
49	93.3	295	COc1ccc2nnn(OCCN3CCC(c4noc5ccccc45)CC3)c2c1 [II-147, N-(2-(6-methoxylbenzotriazolyl)ethoxyl)-4-(3-benzisoxazolyl)piperidine]	–	–	–
45.7	60.3	–	c1ccc2c(C3CCN(CCCCn4nnc5ccccc54)CC3)cccc2c1 [II-122, N-(4-(1H-benzotriazole-1-yl)butyl)-4-(1-naphthyl)piperidine]	–	–	3.04 ± 0.03
91.2	55	55	c1ccc2c(c1)nnn2OCCN1CCC(c2noc3ccccc23)CC1 [II-148]	–	–	–
–	5.89	–	COc1ccc2nnn(CCCN3CCC(c4noc5cc(F)ccc45)CC3)c2c1 [II-140, N-(3-(6-methoxyl-1H-benzotriazole-1-yl)propyl)-4-(3-(6-fluorobenzisoxazolyl))piperidine]	–	5.31 ± 0.05	5.02 ± 0.05
30.2	19.1	–	c1cnc(C2CCN(CCCCn3cnc4ccccc43)CC2)nc1 [II-120, N-(4-(1H-benzimidazoyl-1-yl)butyl)-4-(2-pyrimidinyl)piperidine]	–	–	3.32 ± 0.02
–	37.2	–	c1coc(C2CCN(CCCCn3cnc4ccccc43)CC2)c1 [II-152, N-(4-(1H-benzimidazoyl-1-yl)butyl)-4-(2-furyl)piperidine]	–	4.23 ± 0.03	–
–	13.8	–	COc1ccc2nnn(CCCCN3CCC(c4cccc(C(F)(F)F)c4)CC3)c2c1 [II-131, N-(4-(6-methoxyl-1H-benzotriazole-1-yl)butyl)-4-(3-trifluoromethylphenyl)piperidine]	–	4.77 ± 0.03	–

Reference: patent publication US9415047B2, “Use of benzo five-membered nitrogen heterocyclic piperazine or piperidine derivatives” (Liaoning Emmy Biological Pharmaceutical Co., Ltd., priority 2012, dated 2016)
